Data reported in PMC8037948, “Assessing the In Vitro Inhibitory Effects on Key Enzymes Linked to Type-2 Diabetes and Obesity and Protein Glycation by Phenolic Compounds of Lauraceae Plant Species Endemic to the Laurisilva Forest” (Molecules, 2021).

Columns and labels:
[1] = molecular target: T1, rat α-glucosidase (intestinal acetone powder from rat); experiment: p-nitrophenyl alpha-D-glucopyranoside hydrolysis, absorbance at […] nm; format: biochemical; conditions: alpha-pNPG, 0.1 M phosphate pH 6.9, 37 °C, 20 min; crude intestinal extract
T1 construct: gene Si; supernatant of rat intestinal acetone powder (Sigma-Aldrich), crude extract; several alpha-glucosidases

[2] = molecular target: T2, human aldose reductase (HAR) (Homo sapiens, UniProt P15121); experiment: NADPH absorbance at […] nm; format: biochemical
T2 construct: gene AKR1B1; commercial enzyme from Prozomix

| α-Glucosidase [1] [mg/mL] | IC50 [2] [µM] | Compound |
| --- | --- | --- |
| 0.01 ± 0.01 | – | OC[C@H]1NC[C@H](O)[C@@H](O)[C@@H]1O [1-Deoxynojirimycin] |
| – | 2620 | Oc1cc(O)c2c(c1)O[C@H](c1ccc(O)c(O)c1)[C@@H](O)C2 [(+)-Catechin] |
| 0.12 ± 0.01 | – | C[C@H]1O[C@H](O[C@H]2[C@H](O)[C@@H](O)[C@@H](O[C@H]3[C@H](O)[C@@H](O)C(O)O[C@@H]3CO)O[C@@H]2CO)[C@H](O)[C@@H](O)[C@@H]1N[C@H]1C=C(CO)[C@@H](O)[C@H](O)[C@H]1O (stereo partly drawn) [Acarbose] |
